Assay [1] concerns the target S1P3 receptor (Homo sapiens, UniProt Q99500). The assay can be described thus: 35S-GTPγS binding, membranes from CHO cells expressing S1P3. It counts as biochemical. The following applies: CHO cell membranes expressing S1P3. As to the method:
Receptor binding assay: Membranes were prepared from CHO cells expressing S1P1 or S1P3 for use in ligand and 35S-GTPTS binding studies. Cells were suspended in 50 mM TRIS, pH 7.4, 2 mM EDTA, 250 mM Sucrose (buffer A) and 1× Complete protease inhibitor cocktail (Roche), and disrupted at 4° C. by nitrogen decompression using a cell disruption bomb (Parr Instrument). Following centrifugation at 1000 RPM for 10 min at 4° C., the supernatant was suspended in buffer A and centrifuged again at 19000 RPM for 60 min at 4° C. The pellet was then suspended in 10 mM HEPES, pH 7.4, 1 mM EDTA, 250 mM Sucrose (Buffer B), and 1× Complete EDTA-free protease inhibitor cocktail and homogenized using a potter. Membranes were flash frozen in liquid nitrogen and stored at −80° C. [33P]sphingosine 1-phosphate (3000 Ci/mmol; American Radiolabeled Chemicals, Inc.) was added to test compounds in DMSO. Membranes and WGA SPA beads (GE Healthcare) were added to give a final volume of 100 μl in 96-well plates with assay concentrations of […] [33P]sphingosine 1-phosphate (respectively for S1P1 or S1P3), 50 mM HEPES, pH 7.5, 5 mM MgCl2, 100 mM NaCl, 0.4% fatty acid-free BSA, 1-5 μg/well of proteins and 100 μg/well of WGA SPA beads. Binding was performed for 60 min at room temperature on a shaker and bound radioactivity was measured on a PerkinElmer 1450 MicroBeta counter. Specific binding was calculated by subtracting remaining radioactivity in the presence of 1000-fold excess of unlabeled S1P. Binding data were analyzed using the GraphPad Prism program.
Measurements of ^35S-GTPγS Binding: Membranes (1 to 10 μg protein) prepared as described above, were incubated in 96-well Scintiplates (PerkinElmer) with test compounds diluted in DMSO, in 180 μl of 20 mM HEPES, pH 7.4, 10 mM MgCl2, 2 μg/well Saponin, 0.2% fatty acid free BSA (Assay buffer), 140 mM NaCl and 1.7 μM GDP. The assay was initiated with the addition of 20 μl of 1.5 nM [35S]-GTPγS (1100 Ci/mmol; GE Healthcare) in assay buffer. After 60 min incubation at 30° C. on a shaker, plates were centrifuged for 10 min at 2000 RPM. Supernatant was discarded and membrane bound radioactivity was measured on a PerkinElmer 1450 MicroBeta counter. Triplicate samples were averaged and expressed as response relative to S1P activation in absence of compound (n=2).
(Binding of GTPγS marks nucleotide exchange on a G protein.)

The target of assay [2] is S1P1 receptor (Homo sapiens, UniProt P21453). The assay can be described thus: 35S-GTPγS binding, membranes from CHO cells expressing S1P1. The settings on record: CHO cell membranes expressing S1P1. The format is biochemical. The essentials: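 Membranes (1–10 μg) from CHO cells expressing the receptor were incubated with compound in 20 mM HEPES pH 7.4, 10 mM MgCl2, 140 mM NaCl, 1.7 μM GDP, saponin and 0.2% BSA. [35S]GTPγS (added at 1.5 nM) was then bound for 60 min at 30 °C. Membrane-bound radioactivity, averaged over triplicates, is expressed relative to S1P activation (n=2).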
Sequence of S1P1 receptor (P21453 whole entry): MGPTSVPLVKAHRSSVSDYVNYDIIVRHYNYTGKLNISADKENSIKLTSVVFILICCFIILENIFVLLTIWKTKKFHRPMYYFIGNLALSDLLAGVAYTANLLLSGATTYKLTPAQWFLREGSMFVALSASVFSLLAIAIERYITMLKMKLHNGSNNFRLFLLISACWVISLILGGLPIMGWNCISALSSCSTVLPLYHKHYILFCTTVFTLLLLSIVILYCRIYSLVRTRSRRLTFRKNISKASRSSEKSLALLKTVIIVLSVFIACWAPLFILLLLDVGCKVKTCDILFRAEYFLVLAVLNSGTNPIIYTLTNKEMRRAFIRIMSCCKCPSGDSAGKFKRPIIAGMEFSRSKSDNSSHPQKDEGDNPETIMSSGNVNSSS

Sequence of S1P3 receptor (Q99500 whole entry): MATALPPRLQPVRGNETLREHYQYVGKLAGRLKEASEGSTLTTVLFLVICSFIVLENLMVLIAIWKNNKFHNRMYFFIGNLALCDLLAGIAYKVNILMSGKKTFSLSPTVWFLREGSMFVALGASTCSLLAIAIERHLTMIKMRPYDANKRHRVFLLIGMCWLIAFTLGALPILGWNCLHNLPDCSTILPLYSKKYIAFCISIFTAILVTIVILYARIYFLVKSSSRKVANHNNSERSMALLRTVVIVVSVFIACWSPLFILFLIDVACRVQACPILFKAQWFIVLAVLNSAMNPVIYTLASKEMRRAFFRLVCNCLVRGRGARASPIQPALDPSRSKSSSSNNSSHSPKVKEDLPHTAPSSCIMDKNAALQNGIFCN

With `COCc1c(-c2nc(-c3ccccc3F)no2)nnn1-c1ccccc1F`, the EC50 – broadly, the concentration giving half of the maximal effect – is greater than 30 µM in assay [1] and 211 nM in assay [2].

With `CCc1c(-c2nc(-c3ccccc3)no2)nnn1-c1ccccc1F` [Example 5, 5-[5-Ethyl-1-(2-fluorophenyl)-1H-1,2,3-triazole-4-yl]-3-phenyl-1,2,4-oxadiazole], the EC50 in assay [1] is greater than 30 µM; in assay [2], 862 nM.

In the case of `CCc1c(-c2nc(-c3ccccc3F)no2)nnn1-c1ccccc1F` [Example 6, 5-[5-Ethyl-1-(2-fluorophenyl)-1H-1,2,3-triazole-4-yl]-3-(2-fluorophenyl)-1,2,4-oxadiazole], the concentration giving a half-maximal response (EC50) is greater than 30 µM in assay [1] and 561 nM in assay [2].

Regarding `CCc1c(-c2nc(-c3cc(F)ccc3F)no2)nnn1-c1ccccc1F` [Example 7, 3-(2,5-Difluorophenyl)-5-[5-ethyl-1-(2-fluorophenyl)-1H-1,2,3-triazole-4-yl]-1,2,4-oxadiazole], the EC50 in assay [1] was greater than 30 µM.

In the case of `COCc1c(-c2nc(-c3ccc(F)cc3F)no2)nnn1-c1ccccc1F` [Example 8, 3-(2,4-Difluorophenyl)-5-[1-(2-fluorophenyl)-5-(methoxymethyl)-1H-1,2,3-triazole-4-yl]-1,2,4-oxadiazole], the half-maximal effective concentration (EC50) in assay [1] was greater than 10 µM; in assay [2], 744 nM.

Regarding `COCc1c(-c2nc(-c3cc(F)ccc3F)no2)nnn1-c1ccccc1F` [Example 10, 3-(2,5-Difluorophenyl)-5-[1-(2-fluorophenyl)-5-(methoxymethyl)-1H-1,2,3-triazole-4-yl]-1,2,4-oxadiazole], the EC50 is greater than 30 µM in assay [1] and 45 nM in assay [2].

For `Fc1ccc(-c2noc(-c3nnn(-c4ccccc4F)c3-c3ccccc3)n2)c(F)c1` [Example 11, 3-(2,4-Difluorophenyl)-5-[1-(2-fluorophenyl)-5-phenyl-1H-1,2,3-triazole-4-yl]-1,2,4-oxadiazole], the half-maximal effective concentration (EC50) in assay [1] is greater than 30 µM; in assay [2], 53 nM.

For the compound `Fc1ccc(F)c(-c2noc(-c3nnn(-c4ccccc4F)c3-c3ccccc3)n2)c1` [Example 12, 3-(2,5-Difluorophenyl)-5-[1-(2-fluorophenyl)-5-phenyl-1H-1,2,3-triazole-4-yl]-1,2,4-oxadiazole], the EC50 in assay [1] turned out to be 14 µM; in assay [2] it was 7 nM.

With `Fc1ccccc1-c1noc(-c2nnn(-c3ccccc3F)c2-c2ccccc2)n1` [Example 13, 3-(2-Fluorophenyl)-5-[1-(2-fluorophenyl)-5-phenyl-1H-1,2,3-triazole-4-yl]-1,2,4-oxadiazole], the half-maximal effective concentration (EC50) in assay [1] worked out at 0.486 µM; in assay [2] it was 29 nM.

Take `Fc1ccccc1-n1nnc(-c2nc(-c3ccccc3)no2)c1-c1ccccc1` [Example 14, 5-[1-(2-Fluorophenyl)-5-phenyl-1H-1,2,3-triazole-4-yl]-3-phenyl-1,2,4-oxadiazole]: the figures for the EC50 in assay [1] and in assay [2] were 0.399 µM and 38 nM, respectively.

Take `COCc1c(-c2nc(-c3ccccc3)no2)nnn1-c1ccccc1F` [Example 15, 5-[1-(2-Fluorophenyl)-5-(methoxymethyl)-1H-1,2,3-triazole-4-yl]-3-phenyl-1,2,4-oxadiazole]: the EC50 is greater than 30 µM in assay [1] and 391 nM in assay [2].

On to `CCCCc1c(-c2nc(-c3ccccc3F)no2)nnn1-c1ccccc1F` [Example 16, 5-5-[5-Butyl-1-(2-fluorophenyl)-1H-1,2,3-triazole-4-yl]-3-(2-fluorophenyl)-1,2,4-oxadiazole], for which the concentration giving a half-maximal response (EC50) is 7.36 µM in assay [1] and 158 nM in assay [2].

In the case of `CCCCc1c(-c2nc(-c3ccccc3)no2)nnn1-c1ccccc1F` [Example 17, 5-[5-Butyl-1-(2-fluorophenyl)-1H-1,2,3-triazole-4-yl]-3-phenyl-1,2,4-oxadiazole], the half-maximal effective concentration (EC50) in assay [1] amounted to 4.9 µM; in assay [2], 144 nM.

On to `Oc1ccc(-c2noc(-c3nnn(-c4ccccc4F)c3-c3ccccc3)n2)c(F)c1` [Example 18, 3-Fluoro-4-{5-[1-(2-fluorophenyl)-5-phenyl-1H-1,2,3-triazole-4-yl]-1,2,4-oxadiazole-3-yl}phenol], for which the EC50 is 0.221 µM in assay [1] and 22 nM in assay [2].

For the compound `COC(=O)c1cccc(-c2noc(-c3nnn(-c4ccccc4F)c3-c3ccccc3)n2)c1` [Example 20, Methyl 3-{5-[1-(2-fluorophenyl)-5-phenyl-1H-1,2,3-triazole-4-yl]-1,2,4-oxadiazole-3-yl}benzoate], the results for the half-maximal effective concentration (EC50) in assay [1] and in assay [2] were 8.55 µM and 84 nM, respectively.

With `Fc1ccccc1-n1nnc(-c2nc(-c3cccc(C(F)(F)F)c3)no2)c1-c1ccccc1` [Example 21, 5-[1-(2-Fluorophenyl)-5-phenyl-1H-1,2,3-triazole-4-yl]-3-[3-(trifluoromethyl)phenyl]-1,2,4-oxadiazole], the 50% effective concentration (EC50) in assay [1] was greater than 30 µM; in assay [2], 41 nM.

As to `COc1ccccc1-c1noc(-c2nnn(-c3ccccc3F)c2-c2ccccc2)n1` [Example 22, 5-[1-(2-Fluorophenyl)-5-phenyl-1H-1,2,3-triazole-4-yl]-3-(2-methoxyphenyl)-1,2,4-oxadiazole], the figures for the concentration giving a half-maximal response (EC50) in assay [1] and in assay [2] were 6.86 µM and 140 nM, respectively.

Regarding `Fc1ccccc1-c1noc(-c2nnn(-c3ccccc3F)c2-c2cccnc2)n1` [Example 25, 3-{1-(2-Fluorophenyl)-4-[3-(2-fluorophenyl)-1,2,4-oxadiazole-5-yl]-1H-1,2,3-triazole-5-yl}pyridine], the results for the EC50 in assay [1] and in assay [2] were greater than 20 µM and 272 nM, respectively.

For the compound `Fc1ccc(F)c(-c2noc(-c3nnn(-c4ccccc4F)c3-c3cccnc3)n2)c1` [Example 26, 3-[4-[3-(2,5-Difluorophenyl)-1,2,4-oxadiazole-5-yl]-1-(2-fluorophenyl)-1H-1,2,3-triazole-5-yl]pyridine], the EC50 in assay [1] is greater than 20 µM; in assay [2], 95 nM.

Take `Fc1ccccc1-c1noc(-c2nnn(-c3ccccc3F)c2-c2ccccn2)n1` [Example 27, 2-{1-(2-Fluorophenyl)-4-[3-(2-fluorophenyl)-1,2,4-oxadiazole-5-yl]-1H-1,2,3-triazole-5-yl}pyridine]: the concentration for a half-maximal effect (EC50) in assay [1] is 2.89 µM; in assay [2], 188 nM.

As to `Fc1ccc(F)c(-c2noc(-c3nnn(-c4ccccc4F)c3-c3ccccn3)n2)c1` [Example 28, 2-[4-[3-(2,5-Difluorophenyl)-1,2,4-oxadiazole-5-yl]-1-(2-fluorophenyl)-1H-1,2,3-triazole-5-yl]pyridine], the EC50 in assay [1] is 7.25 µM; in assay [2], 44 nM.

As for `Fc1ccc(F)c(-c2noc(-c3nnn(-c4ccccc4F)c3-c3ccncc3)n2)c1` [Example 31, 4-[4-[3-(2,5-Difluorophenyl)-1,2,4-oxadiazole-5-yl]-1-(2-fluorophenyl)-1H-1,2,3-triazole-5-yl]pyridine], the concentration giving a half-maximal response (EC50) came to 1.78 µM in assay [1] and 7 nM in assay [2].

As for `Fc1ccccc1-c1noc(-c2nnn(-c3ccccc3F)c2-c2ccncc2)n1` [Example 32, 4-{1-(2-Fluorophenyl)-4-[3-(2-fluorophenyl)-1,2,4-oxadiazole-5-yl]-1H-1,2,3-triazole-5-yl}pyridine], the figures for the EC50 in assay [1] and in assay [2] were 1.2 µM and 20 nM, respectively.

Consider `O=C(O)c1ccc(-c2noc(-c3nnn(-c4ccccc4F)c3-c3ccccc3)n2)c(F)c1` [Example 33, 3-Fluoro-4-{5-[1-(2-fluorophenyl)-5-phenyl-1H-1,2,3-triazole-4-yl]-1,2,4-oxadiazole-3-yl}benzoic acid], for which the 50% effective concentration (EC50) was greater than 20 µM in assay [1] and 501 nM in assay [2].

With `Cc1c(-c2nc(-c3ccccc3)no2)nnn1-c1ccccc1F` [Example 34, 5-[1-(2-fluorophenyl)-5-methyl-1H-1,2,3-triazol-4-yl]-3-phenyl-1,2,4-oxadiazole], the concentration for a half-maximal effect (EC50) in assay [1] is greater than 30 µM; in assay [2] it was 1100 nM.

Take `Fc1ccc(F)c(-c2noc(-c3nnn(-c4ccccc4F)c3CN3CCOCC3)n2)c1` [Example 39, 4-{[4-[3-(2,5-difluorophenyl)-1,2,4-oxadiazol-5-yl]-1-(2-fluorophenyl)-1H-1,2,3-triazol-5-yl]methyl}morpholine]: the EC50 in assay [1] came to 0.741 µM; in assay [2] it was 92 nM.

The values are drawn from patent publication US8202856B2 (Merck Serono SA, priority 2007, dated 2012).
